Experimental data published in patent US10561710B2, “Goblet cell replacement therapy” (University of Pittsburgh—Of the Commonwealth System of …, priority 2014, dated 2020).

Experiments:
Format in all cases: in vivo, New Zealand white rabbits
bleb tissue [1] = test: Histological grading of blebs after modified trabeculectomy (H&E, Masson's trichrome); conditions: rabbit modified trabeculectomy, intraoperative topical application, six week study, vs untreated
Procedure: (§1) In the following studies, modified trabeculectomy was performed in New Zealand white rabbits using a 22 gauge angiocatheter inserted into the anterior chamber. Rabbit eyes were either untreated or treated with IP-10FL (SEQ ID NO: 12) or IP-10p (SEQ ID NO: 13) by intraoperative topical application. Untreated and injured bleb formation was confirmed and assessed weekly after the procedure. All animals were euthanized at the end of the six week study.
To evaluate histological differences in treated and untreated blebs, the globes were embedded in paraffin and stained with hematoxylin and eosin (H&E) and Masson's trichrome. A-semi quantitative histological grading score was used to assess cellularity, collagen deposition (fibrosis) and inflammation to compare findings between the four animal groups (uninjured, control (injured), IP-10 full length treated and IP-10p treated).

bleb tissue [2] = test: Neovascularization in bleb tissue by H&E staining (number of capillaries); conditions: rabbit modified trabeculectomy, low-power field in center of injured area, vs untreated
Procedure: FIGS. 2A-2B: Arrested angiogenesis in treated blebs. Neovascularization in the bleb tissue was assessed using H&E staining. (FIG. 2A) Quantitation of the number of capillaries, as determined by morphology, with a low-power field in the center of the injured area is shown in the graph. The data was derived from two independent experiments of at least three globes with each evaluated in three random low-power fields (shown are mean±SD, *P<0.05). […] Original magnifications ×100.
as §1
Next, angiogenesis was evaluated in treated and untreated blebs. Neovascularization in the bleb tissue was assessed by H&E staining.

bleb tissue [3] = test: Collagen in bleb tissue, Masson's trichrome staining with METAMORPH analysis; conditions: rabbit modified trabeculectomy, vs untreated
Procedure: FIGS. 3A-3B: Decreased fibrosis in treated blebs. […] Collagen was quantified using Masson's trichrome staining. […] Original magnifications ×100.
as §1
Collagen was quantified using Masson's trichrome staining.

[4] = system: conjunctival goblet cells; test: Goblet cell number in treated blebs after modified trabeculectomy; conditions: rabbit modified trabeculectomy, average cell number per high-powered field, six central bleb cross-sections, vs untreated
Procedure: FIGS. 4A-4B: Increased goblet cells in treated blebs. […] (FIG. 4A) Goblet cell number was calculated using the average cell number per high-powered field from six consecutive central bleb cross-sections of each specimen. (FIG. 4B) Representative images (Masson's trichrome stain) show the number of conjunctival goblet cells (asterisks).
as §1
Goblet cells were also evaluated in treated and untreated blebs.

[5] = system: conjunctival goblet cells; test: Goblet cells in blebs treated with MMC, IP-10p or IP-10p as perioperative rescue at MMC surgery; conditions: rabbit modified trabeculectomy; MMC alone, or MMC then IP-10p as perioperative rescue
Procedure: FIGS. 5A-5B: Goblet cells in treated and untreated blebs. (FIG. 5A) Goblet cells were evaluated in treated and untreated blebs. Bleb tissue was treated with MMC alone, IP-10p alone, or IP-10p as a perioperative “rescue” treatment at the time of MMC surgery.
Modified trabeculectomy was performed in New Zealand white rabbits using a 22 gauge angiocatheter inserted into the anterior chamber.

Row | Substance | inflammation and fibrosis (semi-quantitative histological grading score; collagen content, elastic fiber thickness and orientation) (bleb tissue [1]) | number of capillaries present in blebs (bleb tissue [2]) | collagen deposition in bleb tissue (bleb tissue [3]) | number of goblet cells in bleb tissue [4] | goblet cells / goblet cell density in bleb tissue [5]
1 | IP-10p: Human IP-10 fragment/variant, SEQ ID NO: 13, PESKAIKNLLKAVSKEMSKRSP | reduction in inflammation and fibrosis | significantly reduced the number of capillaries | significantly less collagen | increase in the number of goblet cells | 
2 | IP-10FL: Human IP-10 variant (IP-10FL), SEQ ID NO: 12; CXCR3 activator | reduction in inflammation and fibrosis | significantly reduced the number of capillaries | significantly less collagen | increase in the number of goblet cells | 
3 | mitomycin C [MMC] |  |  |  |  | marked decrease in goblet cells
